Where two headings read alike, the source gives them in different places.
Experiments:
[1] = tested on: RKO colon cancer cell line; experiment: Cell viability assay (Alamar Blue, 7 days), RKO; type: cell-based; conditions: 168 h
Method: (§1) Cell Culture and Reagents. All cell lines were grown in a 37° C., 5% CO2, humidified environment, in media containing 1% penicillin/streptomycin. Stable cell line generation of GL261 MGMT+ was purchased from Creative Biogene. Cell culture conditions are as follows: cell lines U87, T98G, and RKO were grown in EMEM with 10% FBS. D54, GL261, GL261 MGMT+, and U118MG cell lines were grown in DMEM with 10% FBS. HCT116 cells were grown in RMPI with 10% FBS. D341 Med cells were grown in EMEM with 20% FBS. Temozolomide (TMZ) was purchased from AK Scientific. TMZ analogues were synthesized as described below. Compounds were dissolved in DMSO (1% final concentration, Fisher Chemical) for cell culture studies.
(§2) Cell Viability Assays. Cells were harvested, seeded in a 96-well plate and allowed to adhere. After three hours, compound was added to each well in DMSO (1% final concentration). Cells were incubated for seven days (unless otherwise noted) before viability was assessed by the Alamar Blue assay. Raptinal (20 μM) was used as a dead control.

GL261 cells = experiment: Cell viability assay (Alamar Blue, 7 days), GL261; type: cell-based; conditions: Mus musculus, GL261, 168 h
Method: as §1, §2
(§3) Plated 1500 c/w for GL261; 600 c/w for U87; 600 c/w for U118MG; 1500 c/w for GL261 MGMT+ Incubated ovn and added 1 μL of compound in DMSO the next day. Incubated over 7 days; added Alamar Blue to assess cell viability and used 10 μM Raptinal as dead control. Error is SEM, n=3.

[2] = tested on: expanded panel of GBM cell lines with or without MGMT expression; experiment: Cell viability in expanded panel of GBM cell lines; type: cell-based; conditions: for IC50: 168 h, 7 day
Method: FIG. 1A-C. Selection and evaluation of MGMT-independent imidazotetrazines. (A) IC50 values (M, 7 days) of TMZ and compound 10 in an expanded panel of GBM cell lines. Cell viability was assessed via the Alamar Blue assay, n≥3, error is SEM. (B) Hydrolytic stability of TMZ at pH 7, 7.4, and 8. Percentage of prodrug remaining was quantified by HPLC, n≥2. (C) Hydrolytic stability of compound 10 at pH 7, 7.4, and 8. Percentage of prodrug remaining was quantified by HPLC, n≥2.
FIG. 2A-F. (A) 7 day IC50 values (M) of compound 10 and CPZ in an expanded panel of GBM cell lines. Cell viability was assessed via the Alamar Blue assay, n≥3, error is SEM. (B-E) 7 day dose-response curves of TMZ and CPZ in cell lines with variable MGMT and MMR status. Error is SEM, n≥3. (F) Killing kinetics of CPZ compared to TMZ in the U87 cell line. Cells were treated with compound once and viability was assessed every 24 hours via Alamar Blue assay. Error is SEM, n≥2.
as §2

U87 GBM cell line = experiment: Cell viability assay (Alamar Blue, 7 days), U87; type: cell-based, human; conditions: Homo sapiens, 168 h
Method: as §1, §2, §3

[3] = tested on: genomic DNA of A172 cells; experiment: Quantitation of O6-guanine DNA adducts in cells, A172; type: cell-based; conditions: MGMT-negative; LC-MS/MS
Method: Importantly, because CPZ was designed to release a different active species than TMZ, the alkylation pattern in a cellular context is likely different. Therefore, to assess if alkylation still occurs with CPZ, a DNA alkylation assay was performed. GL261 cells were treated with 100, 300, or 500 μM TMZ or CPZ for 8 hours after which the cells were harvested and genomic DNA was extracted and subsequently hydrolyzed to constituent deoxyribonucleosides. LC-MS/MS analysis was employed to quantify the amount of O^6-methyl-2′-deoxyguanosine (O^6-Me-dG) or O^6-propargylated-2′-O^6-deoxyguanosine (O^6-Prop-dG) in each sample.
Quantitation of O^6-guanine DNA Adducts in Cells. GL261, A172, or D54 cells were plated at 1×10^6 c/w in a 6-well plate before they were treated with compound at the indicated concentration (1% final concentration DMSO). After incubation for the indicated time, the cells were harvested and pelleted. Genomic DNA was extracted using the DNeasy Blood & Tissue Kit (Qiagen, ID: 69504). DNA was then precipitated using the following procedure: 1/10 v/v […] sodium acetate (pH 5.2) and 2.5× v/v ethanol was added to each sample which was then kept at −80° C. for 1 h. […] Hydrolyzed samples were then submitted for LC-MS/MS quantitation along with a synthetic standard. Samples were analyzed with a 5500 QTRAP LC/MS/MS system (AB Sciex) with a 1200 series HPLC system (Agilent).

[4] = Hydrolytic stability studies; type: physicochemical; conditions: PBS; for Hydrolytic stability: percentage of prodrug remaining after 2 hours: pH 7.4, 37° C., HPLC; for half-life at 100 μM: 37° C.
Method: Hydrolytic Stability Studies. Compound (100 μM) was incubated at 37° C. in PBS at pH 7.4 (unless otherwise noted). At the indicated time point, an aliquot was collected and analyzed by HPLC. Compound peaks were integrated and compared to the integration at to calculate the percentage of prodrug remaining.

[5] = Solubility in IV formulations; type: physicochemical; conditions: for Solubility in 20/80 DMSO/PBS / Solubility in 15/7/5/73 DMSO/NMP/T20/20% SPE-βCD / Solubility in 15/10/75 DMSO/NMP/20% SPE-βCD: IV formulation; for Solubility in 20/80 DMSO/PBS: 5 mg/mL solution for 100 μL injection; for Solubility in 15/7/5/73 DMSO/NMP/T20/20% SPE-βCD / Solubility in 15/10/75 DMSO/NMP/20% SPE-βCD: 6.6 mg/mL solution for 200 μL injection
[6] = tested on: D341 Med medulloblastoma cell line; experiment: Cell viability assay (Alamar Blue, 7 days), D341 Med; type: cell-based; conditions: Homo sapiens, 168 h, MGMT (+)/MMR (−), 7 day
Method: as §1, §2

U118MG cells = experiment: Cell viability assay (Alamar Blue, 7 days), U118MG; type: cell-based; conditions: Homo sapiens, U-118-MG, 168 h, MGMT (+) MMR (+), 600 c/w, SEM, n=3
Method: as §1, §2, §3

[7] = 7 days, read-out: Activity, RKO
[8] = MGMT (+)/MMR (−), 7 day, read-out: IC50, RKO
[9] = 7 day dose-response, read-out: IC50, GL261 (parental)
[10] = MGMT (−) MMR (+), 7 days, 1500 c/w, SEM, n=3, read-out: Activity, GL261
[11] = MGMT (−) MMR (+), 600 c/w, SEM, n=3, read-out: Activity, U87
[12] = pH 7.4, calculated from hydrolytic stability data, read-out: Half-life, pH 7.4

Structure (SMILES) | IC50 [1, 7] | IC50 [1, 8] | IC50 (GL261 cells; [9]) | IC50 (GL261 cells; [10]) | IC50 ([2]; read-out: Average IC50 in MGMT (+) cell lines) | IC50 ([2]; read-out: Average IC50 in MGMT (−) cell lines) | IC50 (U87 GBM cell line; [11]) | O6-dG alkylation adducts, A172 [3] | Hydrolytic stability: percentage of prodrug remaining after 2 hours [4] | half-life at 100 μM [4, 12] | Solubility for IV administration [5] | Solubility in 20/80 DMSO/PBS [5] | Solubility in 15/7/5/73 DMSO/NMP/T20/20% SPE-βCD [5] | Solubility in 15/10/75 DMSO/NMP/20% SPE-βCD [5] | IC50 [6] | IC50 (U118MG cells) | Difference in IC50 values between MGMT-negative and positive cell lines ([2]; expanded GBM panel) | IC50 (U87 GBM cell line; MGMT (−), Alamar Blue, error SEM, n ≥ 3, read-out: Seven-day IC50, U87) | half-life at 100 μM ([4]; pH 7, calculated from hydrolytic stability data, read-out: Half-life, pH 7) | half-life at 100 μM ([4]; pH 8, calculated from hydrolytic stability data, read-out: Half-life, pH 8)
C#CCn1nnc2c(Cl)ncn2c1=O [CPZ, 8-chloro-3-(prop-2-yn-1-yl)imidazo[5,1-d][1,2,3,5]tetrazin-4(3H)-one] | 10 ± 1 µM | 10 µM | 28 µM | 28 ± 3 µM | 22 µM | 16 µM | 16 ± 6 µM | did not harbor measurable levels of the propargyl adduct | 30% | 1.2 h | insufficient solubility for IV administration | Insoluble | Insoluble | Insoluble | 8 µM | 17 ± 1 µM |  |  |  | 
Cn1nnc2c(C(N)=O)ncn2c1=O [TMZ, temozolomide, reference compound] | > 1000 µM | > 1000 µM | 120 µM | 120 ± 62 µM |  |  | 51 ± 8 µM | dose-dependent increase in methyl adducts | 40% | ~1.5 h |  | Soluble* | Soluble | Soluble | 460 µM | 322 ± 7 µM | > 6 fold | ~50 µM | 2.97 ± 0.0833 h | 0.483 ± 0.0167 h
